From patent publication US5559152A, “Pharmaceutical composition having antiacoholic activity” (priority 1994, dated 1996)
Read-outs that look alike come from different tables or passages of the source.

Columns and labels:
[1] = tested on: rats subjected to gamma-irradiation; conditions: 16 Gy, 100 mg/kg i.p. 30 min before irradiation
Protocol: This preparation was given i.p. to a group of 10 animals 30 min. before the irradiation in the dosage of 100 mg/kg of animal weight.

[2] = tested on: stomach mucosa
Protocol: The diagnoses were verified on the basis of all presently used methods for diagnosing gastroenterological diseases. […] Pentagastrin in the dosage of 6 μg/kg of body weight and histamine in the dosage of 0.1 ml of 0.1% solution were used as comparative preparations. […] Having deciphered pH-gramms, pH levels, "alkaline time" (AT), hydrogen ions secretion rate (HISR), kinetic function of acid formation (KFA) were determined.
For this purpose the characteristics of stomach acid-forming function were studied in these volunteers after administering said preparations in different sequences.

[3] = tested on: patients; conditions: background; cited from earlier work
[4] = tested on: stomach secretion in patients suffering chronic gastritis; assay: comparative study of pentagastrin and present composition in patients suffering chronic gastritis; format: in vivo, human
Protocol: With intragastric pH-metry initial levels of pH in these patients varied from 3.5 to 6.8, and after Noller test these levels increased to alkaline values (8-9) which levels remained the same during the test period (1-1.5 hours).

[5] = tested on: stomach secretion in patients suffering chronic gastritis accompanied by stomach and duodenum ulcers; assay: stomach secretion in patients with chronic gastritis accompanied by stomach and duodenum ulcers, pentagastrin after present composition; format: in vivo, human
Protocol: The diagnoses were verified on the basis of all presently used methods for diagnosing gastroenterological diseases. […] Additionally intrastomach pH-metry was carried out (on an empty stomach and after taking the present composition or comparative preparations) using acidograph with aspiratory pH probe. Before introducing the present composition and comparative preparations and after that pH levels were registered and "alkaline time" was determined using Noller test. Having deciphered pH-gramms, pH levels, "alkaline time" (AT), hydrogen ions secretion rate (HISR), kinetic function of acid formation (KFA) were determined.

[6] = tested on: stomach secretion in patients suffering chronic gastritis with pentagastrinrefractive achlorhydria; assay: stomach secretion in patients with pentagastrinrefractive achlorhydria; format: in vivo, human; conditions: stimulated secretion; M ± m
Protocol: Additionally intrastomach pH-metry was carried out (on an empty stomach and after taking the present composition or comparative preparations) using acidograph with aspiratory pH probe. Before introducing the present composition and comparative preparations and after that pH levels were registered and "alkaline time" was determined using Noller test. Having deciphered pH-gramms, pH levels, "alkaline time" (AT), hydrogen ions secretion rate (HISR), kinetic function of acid formation (KFA) were determined.
The effect of the present composition on stomach secretion in patients of this group has been studied.

[7] = tested on: succinate dehydrogenase; conditions: mice; 4 mg/kg intrastomach, 40 min; M ± m
[8] = tested on: stomach mucosa; conditions: 3.6 mg/kg, dogs
[9] = tested on: stomach mucosa; conditions: mice, 3.5 mg/kg intrastomach, 35-45 min; M ± m
Protocol: (§1) Stomachs were washed with water through cardiac opening and the washing from the antral opening were collected. Stomach contents (5 ml of washings) were used to determine pH, pepsin and total protein content. Stomach was refilled with water, frozen in cryostate and serial section having the thickness of 6-8 microns were made beginning from low curvature and parallel to stomach longer axis. In the sections of stomach bottom and body having a total weight of 50-90 mg, protein and nucleic acids content was determined.

[10] = tested on: stomach and liver tissues; conditions: in 100 mg of tissue; 3.5 mg/kg; M ± m
Protocol: as §1

[11] = tested on: rats (acute alcohol intoxication)
[12] = tested on: rats subjected to gamma-irradiation; conditions: rodents; cited from earlier work
[13] = histamine stimulated secretion, an hour after present composition
[14] = secretion in 1 h after histamine injection
[15] = secretion in interval between stimulators (after histamine)
[16] = stimulated secretion, pentagastrin a day after present composition, M ± m

SMILES: N[C@@H](CCC(=O)N[C@@H](CS)C(=O)NCC(=O)O)C(=O)O [glutathione]
- mortality [1]: 100%
- life-time of rats ([1]; control 6.9 days): 10.2 days

SMILES: NCCc1c[nH]cn1 [histamine]
- effects on stomach acid-forming function (duration and intensity), present composition versus histamine ([2]; Tables 23 and 24): identical effects on stomach acid-forming function
- Free hydrochloric acid ([2]; histamine secretion, M ± m): 6.5 ± 0.27 meq./liter
- Total hydrochloric acid ([2]; histamine secretion, M ± m): 8.00 ± 0.29 meq./liter
- Free hydrochloric acid [2, 13]: 3.90 ± 0.11 meq/liter
- Total hydrochloric acid [2, 13]: 4.70 ± 0.12 meq/liter
- Free hydrochloric acid [2, 14]: 6.92 ± 0.73 meq/liter
- Total hydrochloric acid [2, 14]: 4.6 ± 0.5 meq/liter
- Free hydrochloric acid [2, 15]: 15.3 ± 1.4 meq./liter
- Total hydrochloric acid [2, 15]: 15.8 ± 1.6 meq./liter
- complications / side effects [3]: nettle-rash,larynx edema, anaphylactic shock

SMILES: CSCC[C@H](NC(=O)[C@H](Cc1c[nH]c2ccccc12)NC(=O)CCNC(=O)OC(C)(C)C)C(=O)N[C@@H](CC(=O)O)C(=O)N[C@@H](Cc1ccccc1)C(N)=O [pentagastrin]
- acidity, pepsin content, hydrochloric acid debit and pepsin debit ([4]; 12 refractory patients): remained at zero levels
- intragastric pH after stimulation ([4]; 12 refractory patients, from 6.51±1.06, p<0.25): 4.69±0.92
- AT reduction in Noller test ([4]; 12 refractory patients, p<0.5): did not cause AT reduction
- patients refractory ([4]; chronic gastritis, pentagastrin 6 μg/kg): 12 of 50
- effect on stomach secretion, comparison of the both preparations ([4]; patients suffering chronic gastritis, p<0.5): nearly the same effect on stomach secretion
- effect on stomach secretion, comparison of the both preparations ([5]; chronic gastritis accompanying stomach and duodenum ulcers, p<0.5): nearly the same effect on stomach secretion
- effects when present composition administered in a week after pentagastrin ([5]; p<0.5): nearly identical
- Pepsin debit ([5]; stimulated secretion, pentagastrin a day after present composition, M ±): 5.0 ± 1.05 mg/h
- Hydrochloric acid debit [5, 16]: 17 ± 1.44 mmol/h
- Secretion volume [5, 16]: 178 ± 12.7 mL
- pH [5, 16]: 1.4 ± 0.14
- Acid secretion [6]: 15.25 ± 0.86%
- Acidity [6]: 0 ± 0 mmol per liter
- Hydrochloric acid debit [6]: 0 ± 0 mmol per hour
- Pepsin content [6]: 0 ± 0 mg per ml
- Pepsin debit [6]: 0 ± 0 mg per hour
- Stomach contents volume [6]: 0.067 ± 0.15 liter per hour

SMILES: O=C(O)CCC(=O)O [succinic acid]
- succinate dehydrogenase activity in liver [7]: 21.8 ± 0.6 nanomoles of formazan of p-nit
- succinate dehydrogenase activity in stomach [7]: 26.3 ± 3.0 nanomoles of formazan of p-nit
- succinate dehydrogenase activity of lymphocytes [7]: 643. ± 5.1 granules of formazan of p-nitr
- time after introduction at which effect on stomach secretion abated [8]: 20 min
- stimulation of stomach glands and fermentative activity ([8]; versus present composition): less expressed results
- Pepsin amount in stomach contents [9]: 18.7 ± 2.1 µg
- Total protein amount in stomach contents [9]: 3.9 ± 0.9 mg
- pH of stomach contents [9]: 5.7 ± 0.2
- Liver DNA content [10]: 15.6 ± 2.7 µg
- Liver RNA content [10]: 74.5 ± 4.4 µg
- Liver protein content [10]: 14.4 ± 1.2 mg
- Stomach DNA content [10]: 13.1 ± 1.1 µg
- Stomach RNA content [10]: 70.0 ± 4.7 µg
- Stomach protein content [10]: 12.1 ± 0.9 mg
- Duration of on-side position, single ethanol injection ([11]; 1.85 mg/kg intrastomach 40 min before 25% ethanol 3.5 g/kg i.p., M ± m): 1.6 ± 1.1 min
- Duration of on-side position, repeated ethanol injection ([11]; 1.85 mg/kg intrastomach, second 25% ethanol 3 g/kg, 60 min after leaving on-side position, M ± m): 24.9 ± 3.8 min
- alcoprotective detoxifying activity compared ([11]; after a single ethanol injection, versus claimed composition): higher alcoprotective detoxifying activity than the claimed composition
- effective dosage (radioprotective) [12]: 2.7 g/kg of animal weight
